From US20240190872A1, “FABI INHIBITORS FOR GRAM-NEGATIVE PATHOGENS” (THE BOARD OF TRUSTEES OF THE UNIVERSITY OF ILLINOIS, priority 2021, published 2024)
Values after ≈ are worked out from the molar mass of the structure shown. Read-outs that look alike come from different tables or passages of the source.

Legend:
S. aureus ATCC 29213 = assay: Antimicrobial susceptibility test (MIC), micro-dilution broth; assay type: cell-based; details: Staphylococcus aureus, ATCC29213
Procedure, shortened: (§1)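 CLSI micro-dilution broth method in cation-adjusted Mueller-Hinton broth, in biological triplicate; human serum (pooled, filtered) was also used.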

A. baumannii FabI = A. baumannii FabI (Acinetobacter baumannii, UniProt D0CAD5); assay: biochemical; details: purified FabI, apparent inhibition constant; read-out: A. baumannii FabI Ki^app
Method: Mode of Action. To probe the effects of varying ring systems and amine placement on FabI target engagement, the apparent inhibition constants (Ki^app) for select compounds were determined using purified FabI. The goal of these studies was two-fold, to comparatively assess fabimycin, Debio-1452-NH3, and Debio-1452, and to also assess differential activity against the E. coli and A. baumannii versions of FabI. FabI from E. coli and A. baumannii were recombinantly expressed and purified, and the ability for each compound to inhibit the activity of these enzymes was evaluated using a standard FabI enzyme assay.
In vitro FabI inhibition assay. NADH (Sigma-Aldrich, Cat# N8129) and crotonoyl-CoA (Sigma-Aldrich, Cat# 28007) were both diluted into activity buffer [100 mM potassium glutamate (pH 7.8)], and working solution was dispensed into two columns of round-bottom 96-well plate (330 μL per well). Inhibitors, dissolved in DMSO at 200× final concentration, were added to each well via multichannel pipette (2.48 μL per well). After thorough mixing, this mixture was transferred to UV-transparent plate (UV-STAR half-area 96-well plate, Greiner Bio-One, Cat#675801, 100 μL per well, three technical replicates per inhibitor concentration). Plate was placed in plate-reader (SpectraMax 190, Molecular Devices) under temperature control (25° C.), and temperature was allowed to equilibrate. Fresh aliquot of enzyme from −80° C. was thawed on ice and diluted in activity buffer. Enzyme working solution was added to plate (50 μL per well, 20 nM enzyme final). After shaking for 5 s, reaction progress was monitored by absorbance at 340 nm every 15 s for 90 min. Linear portion of reaction progress curve was fit using plate-reader software (SoftMax Pro 7.0). Percent activity was calculated relative to DMSO-only and no-enzyme controls in each plate. Percent activity curves were fit to Morrison's quadratic using Graphpad Prism 6.0 to obtain apparent Ki.

E. coli ΔtolC (JW5503) = assay type: cell-based
Procedure, shortened: (§2)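 MICs by CLSI broth microdilution in cation-adjusted Mueller-Hinton broth, performed in biological triplicate. Strains: efflux-deficient E. coli ΔtolC (JW5503, KEIO collection) and K. pneumoniae BAA-2472 (ATCC).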

HERG = HERG (Homo sapiens (Human), UniProt Q12809); assay: cell-based
H. sapiens HFF-1 = assay: In-vitro cytotoxicity; assay type: cell-based
H. sapiens A549 = assay: In-vitro cytotoxicity; assay type: cell-based
in vitro [1] = details: human, plasma
K. pneumoniae BAA 2472 = assay: microbe, parasite or virus in culture; assay type: cell-based; details: Klebsiella pneumoniae, BAA2472, read-out: MIC K. pneumoniae BAA 2472
Procedure, shortened: as §2

in vitro [2] = details: mouse, plasma
A. baumannii AR 0299 = assay: microbe, parasite or virus in culture; assay type: cell-based; details: Acinetobacter baumannii, AR0299, read-out: MIC A. baumannii AR 0299
Procedure, shortened: (§3)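 Testing follows the Clinical and Laboratory Standards Institute micro-dilution protocol. Cultures are set up in cation-adjusted Mueller-Hinton broth. Three biological replicates are run.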

A. baumannii AR 0033 = assay: microbe, parasite or virus in culture; assay type: cell-based; details: Acinetobacter baumannii, AR0033, read-out: MIC A. baumannii AR 0033
Procedure, shortened: as §3

K. pneumoniae AR 0560 = assay: microbe, parasite or virus in culture; assay type: cell-based; details: Klebsiella pneumoniae, AR0560, read-out: MIC K. pneumoniae AR 0560
Procedure, shortened: as §3

A. baumannii AR 0313 = assay: microbe, parasite or virus in culture; assay type: cell-based; details: Acinetobacter baumannii, AR0313, read-out: MIC A. baumannii AR 0313
Procedure, shortened: as §3

A. baumannii AR 0273 = assay: microbe, parasite or virus in culture; assay type: cell-based; details: Acinetobacter baumannii, AR0273, read-out: MIC A. baumannii AR 0273
Procedure, shortened: as §3

K. pneumoniae AR 0066 = assay: microbe, parasite or virus in culture; assay type: cell-based; details: Klebsiella pneumoniae, AR0066, read-out: MIC K. pneumoniae AR 0066
Procedure, shortened: as §3

E. coli AR 0085 = assay: microbe, parasite or virus in culture; assay type: cell-based; details: Escherichia coli, AR0085, read-out: MIC E. coli AR 0085
Procedure, shortened: as §3

K. pneumoniae AR 0113 = assay: microbe, parasite or virus in culture; assay type: cell-based; details: Klebsiella pneumoniae, AR0113, read-out: MIC K. pneumoniae AR 0113
Procedure, shortened: as §3

E. coli AR 0048 = assay: microbe, parasite or virus in culture; assay type: cell-based; details: Escherichia coli, AR0048, read-out: MIC E. coli AR 0048
Procedure, shortened: as §3

E. coli MG1655 = assay: Antimicrobial susceptibility test (MIC); assay type: cell-based; details: Escherichia coli, MG1655
Procedure, shortened: as §1

E. coli ATCC 25922 = assay: MIC; assay type: cell-based; details: Escherichia coli, ATCC25922; line under drawing, Table 8-1

Sequence of A. baumannii FabI (D0CAD5 1-288): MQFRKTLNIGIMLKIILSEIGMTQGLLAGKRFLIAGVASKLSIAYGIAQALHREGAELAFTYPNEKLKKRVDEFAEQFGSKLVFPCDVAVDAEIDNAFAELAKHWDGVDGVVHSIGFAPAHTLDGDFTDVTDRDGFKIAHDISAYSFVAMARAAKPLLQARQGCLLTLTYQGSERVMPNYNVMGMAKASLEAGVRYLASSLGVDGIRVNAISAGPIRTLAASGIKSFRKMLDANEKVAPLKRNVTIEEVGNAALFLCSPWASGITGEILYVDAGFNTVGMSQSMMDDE
Sequence of HERG (Q12809 whole entry): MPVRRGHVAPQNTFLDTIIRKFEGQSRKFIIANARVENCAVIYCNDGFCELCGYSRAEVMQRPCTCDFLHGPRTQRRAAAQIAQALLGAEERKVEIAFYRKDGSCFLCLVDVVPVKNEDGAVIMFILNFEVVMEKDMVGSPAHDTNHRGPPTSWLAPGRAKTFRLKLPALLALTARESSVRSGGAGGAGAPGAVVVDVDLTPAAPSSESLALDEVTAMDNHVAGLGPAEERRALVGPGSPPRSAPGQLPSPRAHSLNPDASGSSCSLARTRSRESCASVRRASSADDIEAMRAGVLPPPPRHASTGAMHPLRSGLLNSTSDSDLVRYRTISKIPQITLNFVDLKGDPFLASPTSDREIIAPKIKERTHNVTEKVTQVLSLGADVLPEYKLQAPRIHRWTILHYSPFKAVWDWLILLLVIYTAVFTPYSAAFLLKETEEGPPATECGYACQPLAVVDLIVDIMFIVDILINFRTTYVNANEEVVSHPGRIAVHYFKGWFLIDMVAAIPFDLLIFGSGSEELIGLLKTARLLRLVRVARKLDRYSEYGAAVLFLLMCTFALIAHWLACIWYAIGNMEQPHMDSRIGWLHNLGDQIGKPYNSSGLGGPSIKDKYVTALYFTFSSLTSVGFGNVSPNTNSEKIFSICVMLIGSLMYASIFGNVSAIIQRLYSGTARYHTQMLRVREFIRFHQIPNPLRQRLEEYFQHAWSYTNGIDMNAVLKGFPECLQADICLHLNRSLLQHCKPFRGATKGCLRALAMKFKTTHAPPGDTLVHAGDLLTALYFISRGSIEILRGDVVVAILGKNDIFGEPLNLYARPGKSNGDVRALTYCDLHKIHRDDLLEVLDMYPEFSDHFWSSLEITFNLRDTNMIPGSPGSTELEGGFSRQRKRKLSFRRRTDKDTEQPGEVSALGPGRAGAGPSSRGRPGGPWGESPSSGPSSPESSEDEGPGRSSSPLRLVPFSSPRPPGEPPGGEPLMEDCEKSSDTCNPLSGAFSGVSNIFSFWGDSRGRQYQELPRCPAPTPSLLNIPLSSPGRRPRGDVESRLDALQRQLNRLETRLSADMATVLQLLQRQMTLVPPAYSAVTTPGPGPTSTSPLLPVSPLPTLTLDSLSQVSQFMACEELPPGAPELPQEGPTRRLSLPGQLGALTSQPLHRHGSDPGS

**Q.** Which results are given for Cc1c(CN(C)C(=O)/C=C/c2cnc3c(c2)CCC(=O)N3)oc2ccccc12 [Debio-1452, (E)-N-methyl-N-((3-methylbenzofuran-2-yl)methyl)-3-(7-oxo-5,6,7,8-tetrahydro-1,8-naphthyridin-3-yl)acrylamide, reference compound]?
**A.** MIC (S. aureus ATCC 29213; S. aureus ATCC 29213, read-out: MIC S. aureus 29213): 0.008 µg/mL (≈ 0.0213 µM); Ki (A. baumannii FabI): 0.799 ± 0.229 µM; MIC E. coli ΔtolC (E. coli ΔtolC (JW5503); efflux deficient E. coli ΔtolC): 0.062 µg/mL (≈ 0.165 µM); IC50 (HERG): 5.5 µM; inhibition at 30 µM (H. sapiens HFF-1): 18 ± 6%; IC50 (H. sapiens HFF-1; cytotoxicity): 165 ± 42 µM; inhibition at 30 µM (H. sapiens A549): 13 ± 6%; IC50 (H. sapiens A549; cytotoxicity): 166 ± 12 µM; fraction unbound (in vitro [1]): 0.019; MIC (K. pneumoniae BAA 2472): > 32 µg/mL; fraction unbound (in vitro [2]): 0.006; MIC (A. baumannii AR 0299): > 32 µg/mL; MIC (A. baumannii AR 0033): > 32 µg/mL; MIC (K. pneumoniae AR 0560): > 32 µg/mL; MIC (A. baumannii AR 0313): > 32 µg/mL; MIC (A. baumannii AR 0273): > 32 µg/mL; MIC (K. pneumoniae AR 0066): > 32 µg/mL; MIC (E. coli AR 0085): > 32 µg/mL; MIC (K. pneumoniae AR 0113): > 32 µg/mL; MIC (E. coli AR 0048): > 32 µg/mL; MIC (E. coli MG1655): > 32 µg/mL

**Q.** What does the source list for O=C1CCc2cc(/C=C/C(=O)N3CC4C=C(c5ccccc5)CC4C3)cnc2N1 (stereo not drawn) [reference compound]?
**A.** MIC (S. aureus ATCC 29213; line under drawing, Table 8-1, read-out: MIC S. aureus ATCC 29213): 0.016 µg/mL (≈ 0.0415 µM); MIC E. coli ΔtolC mutant (E. coli ΔtolC (JW5503); line under drawing, Table 8-1): MIC E. coli ΔtolC mutant = ≤0.03 ug/mL; MIC (E. coli ATCC 25922): > 32 µg/mL
